# Measured values reported in US9200252B2, “Compositions for inducing differentiation into retinal cells from retinal progenitor cells or inducing proliferation of retinal cells comprising Wnt signaling pathway activators” (SNU R&DB Foundation, priority 2009, dated 2015).
# B1: Wnt5A: recombinant Wnt5A (R&D Systems), Wnt signaling pathway activator used instead of Wnt3a (protein, UniProt P41221 62-380, looked up)
# Protein Wnt-5a: IIGAQPLCSQLAGLSQGQKKLCHLYQDHMQYIGEGAKTGIKECQYQFRHRRWNCSTVDNTSVFGRVMQIGSRETAFTYAVSAAGVVNAMSRACREGELSTCGCSRAARPKDLPRDWLWGGCGDNIDYGYRFAKEFVDARERERIHAKGSYESARILMNLHNNEAGRRTVYNLADVACKCHGVSGSCSLKTCWLQLADFRKVGDALKEKYDSAAAMRLNSRGKLVQVNSRFNSPTTQDLVYIDPSPDYCVRNESTGSLGTQGRLCNKTSEGMDGCELMCCGRGYDQFKTVQTERCHCKFHWCCYVKCKKCTEIVDQFVCK
# B2: Wnt11: recombinant Wnt11 (R&D Systems), Wnt signaling pathway activator used instead of Wnt3a (protein, UniProt O96014 25-354, looked up)
# Protein Wnt-11: IKWLALSKTPSALALNQTQHCKQLEGLVSAQVQLCRSNLELMHTVVHAAREVMKACRRAFADMRWNCSSIELAPNYLLDLERGTRESAFVYALSAAAISHAIARACTSGDLPGCSCGPVPGEPPGPGNRWGGCADNLSYGLLMGAKFSDAPMKVKKTGSQANKLMRLHNSEVGRQALRASLEMKCKCHGVSGSCSIRTCWKGLQELQDVAADLKTRYLSATKVVHRPMGTRKHLVPKDLDIRPVKDSELVYLQSSPDFCMKNEKVGSHGTQDRQCNKTSNGSDSCDLMCCGRGYNPYTDRVVERCHCKYHWCCYVTCRRCERTVERYVCK
# B3: Wnt1: recombinant Wnt1 (PeproTech), Wnt signaling pathway activator used instead of Wnt3a (protein, UniProt P04628 28-370, looked up)
# Proto-oncogene Wnt-1: ANSSGRWWGIVNVASSTNLLTDSKSLQLVLEPSLQLLSRKQRRLIRQNPGILHSVSGGLQSAVRECKWQFRNRRWNCPTAPGPHLFGKIVNRGCRETAFIFAITSAGVTHSVARSCSEGSIESCTCDYRRRGPGGPDWHWGGCSDNIDFGRLFGREFVDSGEKGRDLRFLMNLHNNEAGRTTVFSEMRQECKCHGMSGSCTVRTCWMRLPTLRAVGDVLRDRFDGASRVLYGNRGSNRASRAELLRLEPEDPAHKPPSPHDLVYFEKSPNFCTYSGRLGTAGTAGRACNSSSPALDGCELLCCGRGHRTRTQRVTERCNCTFHWCCHVSCRNCTHTRVLHECL
# Tested on: hESC-derived retinal progenitor cells
# Assay: Differentiation of hESC-derived retinal progenitor cells into photoreceptor cells with substitutes for Wnt3a or Shh; positive rates of retinal cell markers by immunochemical staining
# Format: cell-based, human
# Conditions: Mean ± S.E.M., sample size 3
# Procedure: The eye field precursors (floating aggregates) were cultured in 8-well poly-D-lysine/laminin-coated slides (BD Biosciences, Bedford, Mass.) under the same conditions that were used for differentiation into the retinal progenitor cells, the neural retinal progenitor cells, the photoreceptor cell precursors and the photoreceptor cells.
# After being blocked for 90 min, the slides in each differentiation step were incubated overnight at 4° C. with the following antibodies specific for cells of each differentiation step: rabbit-Blue-opsin (1:500, Chemicon), sheep-Chx10 (1:100, Chemicon), rabbit-Crx (1:200, Santa Cruz Biotechnology, Santa Cruz, Calif., USA), rabbit-GFAP (1:200, Invitrogen), mouse-human specific mitochondria (1:50, Chemicon), rabbit-human specific mitochondria (1:200, Chemicon), mouse-Islet1 (1:10, Developmental Studies Hydroma Bank, DSHB; Iowa City, Iowa, USA), mouse-Ki67 (1:100, Vector Laboratories, Peterborough, England), mouse-Mitf (1:1,000, abcam, Cambridge, Mass., USA), mouse-nestin (1:250, BD Sciences), rabbit-neurofilament-200 (1:1,000, Sigma-Aldrich), rabbit-Otx2 (1:100, abcam), rabbit-Pax2 (1:250, abcam), mouse-Pax6 (1:2, DSHB), mouse-peripherin2 (1:500, GenScript, Piscataway, N.J., USA), rabbit-Rax (1:250, abcam), rabbit-recoverin (1:1,000, Chemicon), retinal pigment epithelium 65 (RPE65, 1:100, Chemicon), rabbit-rhodopsin (1:500, Sigma-Aldrich), mouse-rhodopsin (1:500, Ret-P1, Lab Vision, Fremont, Calif., USA), mouse-rhodopsin (1:2,000, Ret-P1, Sigma-Aldrich), mouse-rom1 (1:50, ABR-Affinity Bioreagents, Golden, Colo., USA), rabbit-PDE6 beta (1:100, abcam), rabbit-phosducin (1:500, Santa Cruz Biotechnology), mouse-PKC-alpha (1:500, Sigma-Aldrich), mouse-Prox1 (1:2,000, Chemicon), mouse-Sox2 (1:250, R&D Systems), rabbit-synaptophysin (1:2,000, Santa Cruz Biotechnology), and rabbit-ZO-1 (1:100, Zymed-Invitrogen).
# The cells cultured on the slides in each step were washed three times for 5 min with PBS and incubated at room temperature for 2 hrs with species-specific secondary antibody conjugated with Cy3 (1:800, Jackson Immunoresearch Laboratory) or Alexa488 (1:500, Invitrogen). A standard material suitable for the primary and the secondary antibody was used to examine non-specific staining or interaction between the antibodies. Afterwards, the cells were washed three times for 5 min with PBS, counterstained with DAPI (4,6-diamidino-2 phenylindole) and mounted in Vectashield (Vector Laboratories), followed by visualization under an epifluorescence microscope (Nikon Eclipse, E800, Tokyo, Japan) and a confocal microscope (Leica, Leica Microsystems Inc, Bannockburn, Ill., USA or Zeiss LSM510, Carl Zeiss, Inc, Thornwood, N.Y., USA).
# 500 cells were counted from 20 microscopic fields randomly selected at 200 magnification and evaluated for positive responses to each antibody. Positive responses to antibodies were determined after at least three evaluations. […] All data were represented as mean±standard error of the mean (S.E.M) with a statistical significance of p<0.05.
molecule,measurement,setting,value
"O=C1Nc2cc(Br)ccc2/C1=C1/Nc2ccccc2/C1=N\O [BIO, 6-bromoindirubin-3′-oxime, reference compound]",Positive rate of Crx,2 uM instead of Wnt3a,65.8(±1.0) %
same,Positive rate of Ki67,2 uM instead of Wnt3a,17.2(±0.6) %
same,Positive rate of Pax6,2 uM instead of Wnt3a,92.8(±1.0) %
same,Positive rate of Rom,2 uM instead of Wnt3a,60.3(±0.9) %
same,Positive rate of b-opsin,2 uM instead of Wnt3a,77.5(±1.8) %
same,Positive rate of peripherin2,2 uM instead of Wnt3a,33.9(±0.1) %
same,Positive rate of recoverin,2 uM instead of Wnt3a,77.1(±0.8) %
same,Positive rate of rhodopsin,2 uM instead of Wnt3a,71.5(±1.2) %
"[Cl-].[Li+] [LiCl, reference compound]",Positive rate of recoverin,2.5 mM instead of Wnt3a,64.1(±2.9) %
same,Positive rate of rhodopsin,2.5 mM instead of Wnt3a,56.2(±1.7) %
same,Positive rate of Crx,5 mM instead of Wnt3a,5.0(±1.7) %
same,Positive rate of Ki67,5 mM instead of Wnt3a,33.3(±2.2) %
same,Positive rate of peripherin2,5 mM instead of Wnt3a,1.5(±0.9) %
same,Positive rate of recoverin,5 mM instead of Wnt3a,78.9(±4.4) %
same,Positive rate of rhodopsin,5 mM instead of Wnt3a,68.5(±2.2) %
"O=C1NC(=O)C(c2ccccc2[N+](=O)[O-])=C1Nc1ccc(O)c(Cl)c1 [SB415286, reference compound]",Positive rate of Crx,30 uM instead of Wnt3a,53.7(±2.7) %
same,Positive rate of Ki67,30 uM instead of Wnt3a,13.3(±1.2) %
same,Positive rate of Pax6,30 uM instead of Wnt3a,89.1(±0.6) %
same,Positive rate of Rom,30 uM instead of Wnt3a,59.5(±0.7) %
same,Positive rate of b-opsin,30 uM instead of Wnt3a,53.7(±2.7) %
same,Positive rate of peripherin2,30 uM instead of Wnt3a,9.1(±0.6) %
same,Positive rate of recoverin,30 uM instead of Wnt3a,70.0(±0.6) %
same,Positive rate of rhodopsin,30 uM instead of Wnt3a,69.3(±0.5) %
"c1ccc2c(Oc3nc(Nc4ccc(N5CCOCC5)cc4)c4ncn(C5CCCCC5)c4n3)cccc2c1 [purmorphamine, reference compound]",Positive rate of Crx,1 uM instead of Shh,71.6(±0.8) %
same,Positive rate of Ki67,1 uM instead of Shh,24.3(±0.5) %
same,Positive rate of peripherin2,1 uM instead of Shh,41.5(±1.2) %
same,Positive rate of recoverin,1 uM instead of Shh,76.5(±0.9) %
same,Positive rate of rhodopsin,1 uM instead of Shh,73.5(±1.2) %
"Norrin: recombinant Norrin (R&D Systems), activator of the Wnt pathway, binds to Frizzled4 receptor",Positive rate of Crx,50 ng/ml instead of Wnt3a,39.3(±0.8) %
same,Positive rate of Ki67,50 ng/ml instead of Wnt3a,42.2(±6.8) %
same,Positive rate of Rom,50 ng/ml instead of Wnt3a,69.5(±2.7) %
same,Positive rate of b-opsin,50 ng/ml instead of Wnt3a,71.1(±0.6) %
same,Positive rate of peripherin2,50 ng/ml instead of Wnt3a,24.9(±4.5) %
same,Positive rate of recoverin,50 ng/ml instead of Wnt3a,85.0(±7.2) %
same,Positive rate of rhodopsin,50 ng/ml instead of Wnt3a,82.9(±7.1) %
B1,Positive rate of Crx,50 ng/ml instead of Wnt3a,67.3(±1.9) %
same,Positive rate of Ki67,50 ng/ml instead of Wnt3a,41.3(±3.9) %
same,Positive rate of Rom,50 ng/ml instead of Wnt3a,58.8(±2.7) %
same,Positive rate of b-opsin,50 ng/ml instead of Wnt3a,55.0(±4.4) %
same,Positive rate of peripherin2,50 ng/ml instead of Wnt3a,20.7(±0.8) %
same,Positive rate of recoverin,50 ng/ml instead of Wnt3a,61.0(±3.2) %
same,Positive rate of rhodopsin,50 ng/ml instead of Wnt3a,59.5(±2.0) %
same,Positive rate of peripherin2,100 ng/ml instead of Wnt3a,14.2(±2.8) %
same,Positive rate of recoverin,100 ng/ml instead of Wnt3a,61.6(±2.5) %
same,Positive rate of rhodopsin,100 ng/ml instead of Wnt3a,56.1(±1.8) %
B2,Positive rate of Crx,50 ng/ml instead of Wnt3a,65.9(±5.8) %
same,Positive rate of Ki67,50 ng/ml instead of Wnt3a,40.1(±5.2) %
same,Positive rate of Rom,50 ng/ml instead of Wnt3a,50.2(±7.4) %
same,Positive rate of b-opsin,50 ng/ml instead of Wnt3a,30.6(±6.2) %
same,Positive rate of peripherin2,50 ng/ml instead of Wnt3a,0.5(±0.3) %
same,Positive rate of recoverin,50 ng/ml instead of Wnt3a,65.3(±2.7) %
same,Positive rate of rhodopsin,50 ng/ml instead of Wnt3a,51.8(±7.7) %
same,Positive rate of peripherin2,100 ng/ml instead of Wnt3a,10.7(±2.9) %
same,Positive rate of recoverin,100 ng/ml instead of Wnt3a,61.8(±4.1) %
same,Positive rate of rhodopsin,100 ng/ml instead of Wnt3a,59.1(±5.4) %
B3,Positive rate of Crx,50 ng/ml instead of Wnt3a,60.3(±1.3) %
same,Positive rate of Ki67,50 ng/ml instead of Wnt3a,23.8(±1.2) %
same,Positive rate of Rom,50 ng/ml instead of Wnt3a,55.9(±2.9) %
same,Positive rate of b-opsin,50 ng/ml instead of Wnt3a,61.6(±6.8) %
same,Positive rate of peripherin2,50 ng/ml instead of Wnt3a,3.8(±2.0) %
same,Positive rate of recoverin,50 ng/ml instead of Wnt3a,70.9(±1.8) %
same,Positive rate of rhodopsin,50 ng/ml instead of Wnt3a,66.2(±5.4) %
